The values below are quoted from earlier work in patent US12083128B2, “Use of medications with neuroprotective properties to prevent or reduce the risk of ischemia-reperfusion injury in a subject” (priority 2015, dated 2024).

Read-outs that look alike come from different tables or passages of the source.

Data set [1] concerns retinal gangion cells. The conditions noted are these: in vivo, animals; cited from earlier work.
The subject of data set [2] is optic nerve blood flow. The conditions noted are these: animal models; cited from earlier work.
Data set [3] concerns retinal gangion cells. The conditions noted are these: in vitro; cited from earlier work.
Data set [4] relates to endothelin 1 induced ischemic retinal injury. The conditions noted are these: daily topical administration, animals; cited from earlier work.
The conditions of data set [5]: intravitreal injections for AMD, 49 eyes followed for 12 months; cited from earlier work.

With `CC(C)OC(=O)CCC/C=C\C[C@@H]1[C@@H](/C=C/C(F)(F)COc2ccccc2)[C@H](O)C[C@@H]1O` [tafluprost], the “protection of retinal ganglion cells from apoptosis” value in data set [1] and in data set [3] was “protects retinal gangion cells from apoptosis” throughout. The “optic nerve blood flow” value in data set [2] is recorded as “improved optic nerve blood flow”. In addition, the “RNFL thickness in treated eyes” value in data set [4] is recorded as “thicker in treated eyes”. Also, in data set [4], the “protection against endothelin 1 induced ischemic retinal injury” value was “protective”.
Consider Ranibizumab, for which the RNFL thinning result in data set [5] was “caused significant RNFL thinning”.
